Source: patent publication US8735425B2, “Tetrahydroisoquinoline derivative” (Daiichi Sankyo Company, Limited, priority 2008, dated 2014)

Assays:
DGAT1 enzyme = target: T1, DGAT1 enzyme (Homo sapiens, UniProt O75907); assay: DGAT1 inhibitory activity test; format: biochemical; conditions: test compound concentration of 0.05 μg/ml; read-out: Inhibitory Rate
T1 construct: made in house
T1 sequence (O75907 1-488): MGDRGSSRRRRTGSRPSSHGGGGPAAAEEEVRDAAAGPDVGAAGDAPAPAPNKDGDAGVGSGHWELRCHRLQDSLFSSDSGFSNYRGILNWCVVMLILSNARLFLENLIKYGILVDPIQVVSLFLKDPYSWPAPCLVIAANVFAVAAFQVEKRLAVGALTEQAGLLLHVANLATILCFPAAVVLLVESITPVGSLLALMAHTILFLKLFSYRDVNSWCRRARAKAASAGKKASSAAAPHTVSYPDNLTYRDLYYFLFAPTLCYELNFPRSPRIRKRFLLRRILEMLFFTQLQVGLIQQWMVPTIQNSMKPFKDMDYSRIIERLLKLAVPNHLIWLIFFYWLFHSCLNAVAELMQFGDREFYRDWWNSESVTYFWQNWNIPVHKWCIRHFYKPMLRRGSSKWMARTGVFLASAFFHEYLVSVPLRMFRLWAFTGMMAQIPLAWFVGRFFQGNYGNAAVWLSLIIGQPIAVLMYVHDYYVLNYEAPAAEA
Procedure, shortened: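 Reaction at 23° C for 30 min in 175 mM Tris-HCl pH 8.0, 8 mM MgCl2, 1 mg/ml BSA, 0.5% Triton X-100 with 0.3 mM 1,2-dioleoyl-sn-glycerol and 10 μM [14C]-oleoyl-CoA. Triglyceride extracted into heptane, separated by TLC, radioactivity quantified; % inhibition versus vehicle control, 0-min background subtracted.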

Male C57BL/6N mice = assay: Triglyceride absorption suppression after fat loading (in vivo DGAT1 inhibitory effect); conditions: Mus musculus, po; dose of 10 mg/kg or lower, orally administered, mice fasted overnight, plasma triglyceride after fat loading; read-out: Triglyceride absorption suppressive activity
Procedure: The DGAT1 enzyme is important for the digestion and absorption of triglycerides, and the inhibition of DGAT1 in the small intestine suppresses the absorption of triglycerides. The in vivo activity of its DGAT1 inhibitory effect was evaluated with the suppressed absorption of triglycerides after fat loading as an index. Male C57BL/6N mice (7-12 weeks old, body weight: 17-25 g, Charles River Laboratories Japan Inc.) fasted overnight were assigned to Vehicle group 1, Vehicle group 2, and each test compound group, to which a vehicle (0.5% methylcellulose) or each test compound (1 to 10 mg/kg) suspended in vehicle was orally administered (5 mL/kg). After a given time, a lipoprotein lipase inhibitor (Pluronic-F127: Sigma-Aldrich Corp., 1 g/kg, 20% by weight dissolved in saline) was intraperitoneally administered (5 mL/kg) to each group. Immediately thereafter, distilled water for the Vehicle group 1 or a 20% fat-containing emulation (Intralipid 20%: TERUMO CORP., Japan) for the Vehicle group 2 and the compound groups were orally administered thereto (0.2 mL/mouse). After a given time of 1 to 4 hours after administration, blood was collected from the tail vein or the right ventricle, and plasma was immediately separated and collected. Then, the triglyceride concentration in plasma was measured using a commercially available kit (Triglyceride E-Test Wako: Wako Pure Chemical Industries, Ltd.). In this method, the administration of the lipoprotein lipase inhibitor suppresses the hydrolysis of triglycerides in the blood such that the triglycerides are accumulated in the blood. These triglycerides are derived from two origins: exogenous triglycerides absorbed in the gastrointestinal tract and endogenous triglycerides released from the liver. The triglyceride absorption suppressive activity of each test compound was calculated based on the equation shown below by removing the influence of the endogenous triglycerides. In this context, each test compound was separately confirmed to have no influence on the concentration of the endogenous triglycerides.
Triglyceride absorption suppressive activity (%)=100−[(Triglyceride concentration of each test compound group)−(Triglyceride concentration of Vehicle group 1)]/[(Triglyceride concentration of Vehicle group 2)−(Triglyceride concentration of Vehicle group 1)]×100

| Structure (SMILES) | inhibition at 0.05 µg/mL (DGAT1 enzyme) [%] | inhibition in vivo at up to 10 mg/kg (Male C57BL/6N mice) [%] |
| --- | --- | --- |
| O=C(O)C[C@H]1CC[C@H](OC(=O)N2CCc3cc(NC(=O)Nc4ccccc4)ccc3C2)CC1 [Example 50, trans-6-(3-phenyl-ureido)-3,4-dihydro-1H-isoquinoline-2-carboxylic acid 4-carboxymethyl-cyclohexyl ester] | ≥ 50 | ≥ 60 |
| O=C(O)C[C@H]1CC[C@H](OC(=O)N2CCc3cc(NC(=O)Nc4cccc(OC(F)F)c4)ccc3C2)CC1 [Example 51, trans-6-[3-(3-difluoromethoxy-phenyl)-ureido]-3,4-dihydro-1H-isoquinoline-2-carboxylic acid 4-carboxymethyl-cyclohexyl ester] | ≥ 50 | ≥ 60 |
| O=C(O)C[C@H]1CC[C@H](OC(=O)N2CCc3cc(NC(=O)Nc4cccc(OC(F)(F)F)c4)ccc3C2)CC1 [Example 52, trans-6-[3-(3-trifluoromethoxy-phenyl)-ureido]-3,4-dihydro-1H-isoquinoline-2-carboxylic acid 4-carboxymethyl-cyclohexyl ester] | ≥ 50 | ≥ 60 |
| CCOc1cccc(NC(=O)Nc2ccc3c(c2)CCN(C(=O)O[C@H]2CC[C@H](CC(=O)O)CC2)C3)c1C [Example 53, trans-6-[3-(3-ethoxy-2-methyl-phenyl)-ureido]-3,4-dihydro-1H-isoquinoline-2-carboxylic acid 4-carboxymethyl-cyclohexyl ester] | ≥ 50 | ≥ 60 |
| CCOc1cc(NC(=O)Nc2ccc3c(c2)CCN(C(=O)O[C@H]2CC[C@H](CC(=O)O)CC2)C3)ccc1C [Example 54, trans-6-[3-(3-ethoxy-4-methyl-phenyl)-ureido]-3,4-dihydro-1H-isoquinoline-2-carboxylic acid 4-carboxymethyl-cyclohexyl ester] | ≥ 50 | ≥ 60 |
| CCOc1ccc(C)c(NC(=O)Nc2ccc3c(c2)CCN(C(=O)O[C@H]2CC[C@H](CC(=O)O)CC2)C3)c1 [Example 55, trans-6-[3-(5-ethoxy-2-methyl-phenyl)-ureido]-3,4-dihydro-1H-isoquinoline-2-carboxylic acid 4-carboxymethyl-cyclohexyl ester] | ≥ 50 | ≥ 60 |
| COc1cc(F)cc(NC(=O)Nc2ccc3c(c2)CCN(C(=O)O[C@H]2CC[C@H](CC(=O)O)CC2)C3)c1 [Example 56, trans-6-[3-(3-fluoro-5-methoxy-phenyl)-ureido]-3,4-dihydro-1H-isoquinoline-2-carboxylic acid 4-carboxymethyl-cyclohexyl ester] | ≥ 50 | ≥ 60 |
| O=C(O)C[C@H]1CC[C@H](OC(=O)N2CCc3cc(NC(=O)Nc4ccc(F)c(F)c4)ccc3C2)CC1 [Example 57, trans-6-[3-(3,4-difluoro-phenyl)-ureido]-3,4-dihydro-1H-isoquinoline-2-carboxylic acid 4-carboxymethyl-cyclohexyl ester] | ≥ 50 | ≥ 60 |
| COc1cc(NC(=O)Nc2ccc3c(c2)CCN(C(=O)O[C@H]2CC[C@H](CC(=O)O)CC2)C3)ccc1F [Example 58, trans-6-[3-(4-fluoro-3-methoxy-phenyl)-ureido]-3,4-dihydro-1H-isoquinoline-2-carboxylic acid 4-carboxymethyl-cyclohexyl ester] | ≥ 50 | ≥ 60 |
| CCOc1cc(NC(=O)Nc2ccc3c(c2)CCN(C(=O)O[C@H]2CC[C@H](CC(=O)O)CC2)C3)ccc1F [Example 59, trans-6-[3-(3-ethoxy-4-fluoro-phenyl)-ureido]-3,4-dihydro-1H-isoquinoline-2-carboxylic acid 4-carboxymethyl-cyclohexyl ester] | ≥ 50 | ≥ 60 |
| COc1ccc(F)c(NC(=O)Nc2ccc3c(c2)CCN(C(=O)O[C@H]2CC[C@H](CC(=O)O)CC2)C3)c1 [Example 60, trans-6-[3-(2-fluoro-5-methoxy-phenyl)-ureido]-3,4-dihydro-1H-isoquinoline-2-carboxylic acid 4-carboxymethyl-cyclohexyl ester] | ≥ 50 | ≥ 60 |
| CCOc1ccc(F)c(NC(=O)Nc2ccc3c(c2)CCN(C(=O)O[C@H]2CC[C@H](CC(=O)O)CC2)C3)c1 [Example 61, trans-6-[3-(5-ethoxy-2-fluoro-phenyl)-ureido]-3,4-dihydro-1H-isoquinoline-2-carboxylic acid 4-carboxymethyl-cyclohexyl ester] | ≥ 50 | ≥ 60 |
| CSc1ccc(NC(=O)Nc2ccc3c(c2)CCN(C(=O)O[C@H]2CC[C@H](CC(=O)O)CC2)C3)cc1 [Example 62, trans-6-[3-(4-methylsulfanyl-phenyl)-ureido]-3,4-dihydro-1H-isoquinoline-2-carboxylic acid 4-carboxymethyl-cyclohexyl ester] | ≥ 50 | ≥ 60 |
| CSc1cccc(NC(=O)Nc2ccc3c(c2)CCN(C(=O)O[C@H]2CC[C@H](CC(=O)O)CC2)C3)c1 [Example 64, trans-6-[3-(3-methylsulfanyl-phenyl)-ureido]-3,4-dihydro-1H-isoquinoline-2-carboxylic acid 4-carboxymethyl-cyclohexyl ester] | ≥ 50 | ≥ 60 |
| O=C(O)C[C@H]1CC[C@H](OC(=O)N2CCc3cc(NC(=O)Nc4cccc(C(F)(F)F)c4)ccc3C2)CC1 [Example 66, trans-6-[3-(3-trifluoromethyl-phenyl)-ureido]-3,4-dihydro-1H-isoquinoline-2-carboxylic acid 4-carboxymethyl-cyclohexyl ester] | ≥ 50 | ≥ 60 |
| O=C(O)C[C@H]1CC[C@H](OC(=O)N2CCc3cc(NC(=O)Nc4cccc(F)c4)ccc3C2)CC1 [Example 67, trans-6-[3-(3-fluoro-phenyl)-ureido]-3,4-dihydro-1H-isoquinoline-2-carboxylic acid 4-carboxymethyl-cyclohexyl ester] | ≥ 50 | ≥ 60 |
| Cc1cccc(NC(=O)Nc2ccc3c(c2)CCN(C(=O)O[C@H]2CC[C@H](CC(=O)O)CC2)C3)c1 [Example 68, trans-6-(3-m-tolyl-ureido)-3,4-dihydro-1H-isoquinoline-2-carboxylic acid 4-carboxymethyl-cyclohexyl ester] | ≥ 50 | ≥ 60 |
| O=C(O)C[C@H]1CC[C@H](OC(=O)N2CCc3cc(NC(=O)Nc4ccc(C(F)(F)F)cc4)ccc3C2)CC1 [Example 69, trans-6-[3-(4-trifluoromethyl-phenyl)-ureido]-3,4-dihydro-1H-isoquinoline-2-carboxylic acid 4-carboxymethyl-cyclohexyl ester] | ≥ 50 | ≥ 60 |
| CCc1cccc(NC(=O)Nc2ccc3c(c2)CCN(C(=O)O[C@H]2CC[C@H](CC(=O)O)CC2)C3)c1 [Example 70, trans-6-[3-(3-ethyl-phenyl)-ureido]-3,4-dihydro-1H-isoquinoline-2-carboxylic acid 4-carboxymethyl-cyclohexyl ester] | ≥ 50 | ≥ 60 |
